Data from patent publication US20260216347A1, “Substituted Imidazo-Based Compounds as Ligand Directed Degraders of IRAK3” (Celgene Corporation, priority 2022, published 2026).

Key:
[1] = target: T1, IRAK3 (Homo sapiens, UniProt Q9Y616); test: IRAK endogenous HTRF degradation assay (Total-IRAK3 HTRF kit); assay type: cell-based; conditions: overnight incubation, lowest percentage of protein remaining
T1 construct: IRAK Endogenous HTRF Degradation Assay; endogenous in cells
T1 sequence (Q9Y616 1-596): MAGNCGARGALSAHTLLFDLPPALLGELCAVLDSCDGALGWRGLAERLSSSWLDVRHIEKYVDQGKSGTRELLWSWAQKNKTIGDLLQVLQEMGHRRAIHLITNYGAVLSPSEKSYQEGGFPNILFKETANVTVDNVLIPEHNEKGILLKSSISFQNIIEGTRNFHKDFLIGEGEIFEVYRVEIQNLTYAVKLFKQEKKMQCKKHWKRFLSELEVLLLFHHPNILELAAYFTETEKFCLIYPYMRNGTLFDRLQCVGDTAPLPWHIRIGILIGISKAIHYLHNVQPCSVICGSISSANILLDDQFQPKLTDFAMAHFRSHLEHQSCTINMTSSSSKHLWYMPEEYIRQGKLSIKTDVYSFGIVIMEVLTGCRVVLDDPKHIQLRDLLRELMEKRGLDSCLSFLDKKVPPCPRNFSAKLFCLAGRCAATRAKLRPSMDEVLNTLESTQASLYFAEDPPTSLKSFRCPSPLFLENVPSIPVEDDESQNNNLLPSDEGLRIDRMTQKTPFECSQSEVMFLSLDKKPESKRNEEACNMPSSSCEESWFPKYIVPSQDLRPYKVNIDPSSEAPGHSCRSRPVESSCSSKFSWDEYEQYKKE
Method: Example B2. IRAK Endogenous HTRF Degradation Assay
Cells (~50 k) were plated in Cisbio 96-well low volume white plates (Cisbio: cat #66PL96005). Compounds were dissolved in DMSO and a 3-fold serial dilution was performed using a TECAN D300E. Cells were incubated with the compound overnight. Total-IRAK3 HTRF kit from Cisbio was used for degradation analysis (Cisbio: 63ADK101PEH). Cryptate and D2 antibodies were diluted in Detection buffer as per manufacturers recommendation. Then 2 μL of each solution was added to 16 μL lysate. Buffer control (lysis buffer detection buffer), Cryptate control (lysis buffer+cryptate antibody+detection buffer), and Negative control (lysis buffer+cryptate antibody+D2 antibody) were made as per manufacturers recommendation. Post incubation with antibodies the HTRF signal was measured using a Perkin Elmer Envision reader and the HTRF signal was calculated using formula: (Emission at 665 nm/Emission at 615 nm)*10,000. All HTRF values were normalized to the average value of DMSO. The average value of the DMSO control wells were set to equal 100% of the relative IRAK3 protein levels. Normalized luminescence values were plotted on a graph as a function of compound concentration. Compound concentration was plotted on the x-axis and the corresponding normalized IRAK3 protein levels on the y-axis. The EC50 value (the half-maximum effective concentration) of a compound for the degradation of the IRAK3 was calculated using a four-parameter logistic model (sigmoidal dose-response model) (FIT=(A+{(B−A)/1+[(C/x)D]})) where C is the inflection point (EC50), D is the […], and A and B are the low and high limits of the fit, respectively). The Ymin was calculated by determining the lowest percentage of target protein remaining following compound treatment. Dmax was calculated from Ymin (% Dmax=100−Ymin).
Using these assays, IC50, Dmax, EC50, and DC50 values of the following compounds were determined. Dmax is defined as the maximum percent degradation achieved and DC50 is the concentration at which 50% degradation is achieved.

[2] = target: T1, IRAK3; test: IRAK3 biochemical binding assay (LanthaScreen Eu Kinase Binding, TR-FRET)
Summary of the method: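 TR-FRET tracer-displacement binding with 10 nM IRAK3, 2 nM Eu-anti-GST antibody and 10 nM tracer in 50 mM HEPES pH 7.4, MgCl2, 1 mM EGTA, 0.01% Brij-35. Compounds in 3-fold dilutions, 1 h at room temperature. 665/615 nm ratio gave % inhibition; IC50 and Hill slope from dose-response fit.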

[3] = target: T2, IRAK3-ePL (Homo sapiens, UniProt Q9Y616); test: IRAK3-ePL overexpressing degradation assay (InCELL Hunter luminescence, dose response); assay type: cell-based; conditions: for IRAK3 ePL degradation Ymin: lowest percentage of target protein remaining following compound treatment; for DC50: read-out: IRAK3 ePL degradation EC50
T2 construct: expressed in transfected cells; host or cells: 293T CRBN OE/GSPT1 G575N KI cells, lentiviral transduction, puromycin selected
Summary of the method: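 Lenti-X 293T CRBN/GSPT1 G575N cells stably expressing IRAK3-ePL (5,000/well) treated overnight at 37° C with 10-point 3-fold dilutions from 10 μM, 0.2% DMSO. InCELL Hunter luminescence, background subtracted using Ataluren wells and normalized to DMSO; EC50 from four-parameter logistic fit.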

Compound | IRAK3 HTRF degradation Ymin [1] [%] | IC50 [2] [nM] | IRAK3 ePL degradation Ymin [3] [%] | DC50 [3] [nM]
COc1cc(N2CCN(CCN3CCC(n4cc(Nc5ncc(-c6cc(C)c(F)cc6F)n6ccnc56)cn4)CC3)CC2)ccc1C1CCC(=O)NC1=O (centres unmarked) [Compound 25, 3-(4-(4-(2-(4-(4-((5-(2,4-difluoro-5-methylphenyl)imdazo [1,2-a]pyrazin-8-yl)amino)-1H-pyrazol-1-yl)piperidin-1-yl)ethyl)piperazin-1-yl)-2-methoxyphenyl) piperidine-2,6-dione] | 18 | 1.7 | – | –
Cc1cc(-c2cnc(Nc3cnn(C4CCN(C(=O)CN5CCN(c6ccc7c(c6)C(=O)N(C6CCC(=O)NC6=O)C7=O)CC5)CC4)c3)c3nccn23)c(F)cc1F (centres unmarked) [Compound 24, 5-(4-(2-(4-(4-((5-(2,4-difluoro-5-methylphenyl)imidazo[1,2-a]pyrazin-8-yl)amino)-1H-pyrazol-1-yl)piperidin-1-yl)-2-oxoethyl)piperazin-1-y1)-2-(2,6-dioxopiperidin-3-yl)isoindoline-1,3-dione] | 25 | 4.6 | – | –
Cc1cc(-c2cnc(Nc3cnn([C@H]4CCN(CCN5CCN(c6ccc(C7CCC(=O)NC7=O)cc6)CC5)[C@@H](C)C4)c3)c3nccn23)c(F)cc1F (stereo partly drawn) [Compound 26, 3-(4-(4-(2-((2S,4S)-4-(4-((5-(2,4-difluoro-5-methylphenyl)imdazo [1,2-a]pyrazin-8-yl)amino)-1H-pyrazol-1-yl)-2-methylpiperidin-1-yl)ethyl)piperazin-1-yl)phenyl) piperidine-2,6-dione] | 12 | 1.1 | – | –
Cn1cc(-c2cnc(Nc3cnn(C4CCN(CCN5CCN(c6ccc(C7CCC(=O)NC7=O)cc6)CC5)CC4)c3)c3nccn23)cn1 (centres unmarked) [Compound 73, 3-(4-(4-(2-(4-(4-((5-(1-methyl-1H-pyrazol-4-yl)imidazo[1,2-a]pyrazin-8-yl)amino)-1H-pyrazol-1-yl)piperidin-1-yl)ethyl)piperazin-1-yl)phenyl) piperidine-2,6-dione] | 9.1 | – | 24 | 0.51
Cc1cc(-c2cnc(Nc3cnn([C@H]4CCN(CCN5CCN(c6ccc(C7CCC(=O)NC7=O)cc6)CC5)C[C@H]4F)c3)c3nccn23)c(F)cc1F (stereo partly drawn) [Compound 63, 3-(4-(4-(2-((3R,4S)-4-(4-((5-(2,4-difluoro-5-methylphenyl)imdazo [1,2-a]pyrazin-8-yl)amino)-1H-pyrazol-1-yl)-3-fluoropiperidin-1-yl)ethyl)piperazin-1-yl)phenyl) piperidine-2,6-dione] | 8.9 | – | 25 | 0.51
Cc1cc(-c2cnc(Nc3cnn(C4CCN(CCN5CCN(c6ccc(C7CCC(=O)NC7=O)cc6)CC5)CC4)c3)c3ncc(C)n23)c(F)cc1F (centres unmarked) [Compound 61, 3-(4-(4-(2-(4-(4-((5-(2,4-difluoro-5-methylphenyl)-3-methylimidazo[1,2-a]pyrazin-8-yl)amino)-1H-pyrazol-1-yl)piperidin-1-yl)ethyl)piperazin-1-yl)phenyl) piperidine-2,6-dione] | 20 | – | 41 | 18
Cc1cc(-c2cnc(Nc3cnn(C4CCN(CCN5[C@H](C)CN(c6ccc(C7CCC(=O)NC7=O)cc6)C[C@H]5C)CC4)c3)c3nccn23)c(F)cc1F (stereo partly drawn) [Compound 58, 3-(4-((3R,5R)-4-(2-(4-(4-((5-(2,4-difluoro-5-methylphenyl)imdazo [1,2-a]pyrazin-8-yl)amino)-1H-pyrazol-1-yl)piperidin-1-yl)ethyl)-3,5-dimethylpiperazin-1-yl)phenyl) piperidine-2,6-dione] | 9.7 | – | 25 | 0.98
Cc1cccc(-c2cnc(Nc3cnn([C@H]4CC[C@@H](CCN5CCN(c6ccc(C7CCC(=O)NC7=O)cc6)CC5)CC4)c3)c3nccn23)c1 (stereo partly drawn) [Compound 45, 3-(4-(4-(2-((cis)-4-(4-((5-(m-tolyl)imidazo [1,2-a]pyrazin-8-yl)amino)-1H-pyrazol-1-yl)cyclohexyl)ethyl)piperazin-1-yl)phenyl) piperidine-2,6-dione] | 15 | – | 26 | 7.2
Cc1cc(-c2cnc(Nc3cnn([C@H]4CC[C@@H](CCN5CCN(c6ccc(C7CCC(=O)NC7=O)cc6)C[C@@H]5C)CC4)c3)c3nccn23)c(F)cc1F (stereo partly drawn) [Compound 27, 3-(4-((S)-4-(2-((cis)-4-(4-((5-(2,4-difluoro-5-methylphenyl)imidazo[1,2-a]pyrazin-8-yl)amino)-1H-pyrazol-1-yl)cyclohexyl)ethyl)-3-methylpiperazin-1-yl)phenyl) piperidine-2,6-dione] | 14 | 7.6 | – | –
